Test results from PubChem BioAssay AID1259407 (Chemical Carcinogenesis Research Information System (CCRIS), 2018).
Calls of active or inactive are those of the source. The rule behind the calls is not given here.

Test system: CCRIS mutagenicity, Ames/micronucleus/aberration tests
Assay: CCRIS mutagenicity studies
[1] = Test System: AMES SALMONELLA TYPHIMURIUM, Strain/Indicator: TA98, Metabolic Activation: NONE, Method: STANDARD PLATE
[2] = Test System: AMES SALMONELLA TYPHIMURIUM, Strain/Indicator: TA98, Metabolic Activation: RAT, LIVER, S-9, AROCLOR 1254, Method: STANDARD PLATE
[3] = Test System: AMES SALMONELLA TYPHIMURIUM, Strain/Indicator: TA100, Metabolic Activation: NONE, Method: STANDARD PLATE
[4] = Test System: AMES SALMONELLA TYPHIMURIUM, Strain/Indicator: TA100, Metabolic Activation: RAT, LIVER, S-9, AROCLOR 1254, Method: STANDARD PLATE

BrC(Br)Br
mutagenic call (End Point: IN VITRO CHROMOSOMAL ABERRATIONS, Test System: CHO CELLS, Metabolic Activation: NONE): inactive; negative
mutagenic call (End Point: IN VITRO CHROMOSOMAL ABERRATIONS, Test System: CHO CELLS, Metabolic Activation: RAT, LIVER, S-9, AROCLOR 1254): inactive; negative
mutagenic call (End Point: IN VIVO MICRONUCLEUS, Test System: BONE MARROW POLYCHROMATIC ERYTHROCYTES, Species: MOUSE, Strain/Sex: DDY/MALE, Route: IP): inactive; negative
mutagenic call (Test System: AMES SALMONELLA TYPHIMURIUM, Strain/Indicator: RSJ100, Metabolic Activation: NONE, Method: PREINCUBATION): active; positive
mutagenic call (Test System: AMES SALMONELLA TYPHIMURIUM, Strain/Indicator: RSJ100, Metabolic Activation: NONE, Method: STANDARD PLATE): active; positive
mutagenic call (Test System: AMES SALMONELLA TYPHIMURIUM, Strain/Indicator: RSJ100, Metabolic Activation: RAT LIVER S-9, Method: PREINCUBATION): inactive; negative
mutagenic call (Test System: AMES SALMONELLA TYPHIMURIUM, Strain/Indicator: TA97, Metabolic Activation: HAMSTER, LIVER, S-9 (10% OR 30%), AROCLOR 1254, Method: PREINCUBATION): inactive; negative
mutagenic call (Test System: AMES SALMONELLA TYPHIMURIUM, Strain/Indicator: TA97, Metabolic Activation: NONE, Method: PREINCUBATION): inactive; negative
mutagenic call (Test System: AMES SALMONELLA TYPHIMURIUM, Strain/Indicator: TA97, Metabolic Activation: RAT, LIVER, S-9 (10% OR 30%), AROCLOR 1254, Method: PREINCUBATION): inactive; negative
mutagenic call (Test System: AMES SALMONELLA TYPHIMURIUM, Strain/Indicator: TA98, Metabolic Activation: HAMSTER, LIVER, S-9 (5% OR 10%), AROCLOR 1254, Method: PREINCUBATION): inactive; negative
mutagenic call (Test System: AMES SALMONELLA TYPHIMURIUM, Strain/Indicator: TA98, Metabolic Activation: HAMSTER, LIVER, S-9, AROCLOR 1254, Method: PREINCUBATION): inactive; negative
mutagenic call [1]: inactive; negative
mutagenic call (Test System: AMES SALMONELLA TYPHIMURIUM, Strain/Indicator: TA98, Metabolic Activation: RAT LIVER S-9, Method: PREINCUBATION): active; positive
mutagenic call (Test System: AMES SALMONELLA TYPHIMURIUM, Strain/Indicator: TA98, Metabolic Activation: RAT, LIVER, S-9 (10% OR 30%), AROCLOR 1254, Method: PREINCUBATION): inactive; negative
mutagenic call (Test System: AMES SALMONELLA TYPHIMURIUM, Strain/Indicator: TA98, Metabolic Activation: RAT, LIVER, S-9, AROCLOR 1254, Method: PREINCUBATION): inactive; negative
mutagenic call [2]: inactive; negative
mutagenic call (Test System: AMES SALMONELLA TYPHIMURIUM, Strain/Indicator: TA100, Metabolic Activation: HAMSTER, LIVER, S-9 (10% OR 30%), AROCLOR 1254, Method: PREINCUBATION): inactive; negative
mutagenic call (Test System: AMES SALMONELLA TYPHIMURIUM, Strain/Indicator: TA100, Metabolic Activation: HAMSTER, LIVER, S-9, AROCLOR 1254, Method: PREINCUBATION): inactive; negative
mutagenic call (Test System: AMES SALMONELLA TYPHIMURIUM, Strain/Indicator: TA100, Metabolic Activation: NONE, Method: DESICCATOR): active; positive
mutagenic call (Test System: AMES SALMONELLA TYPHIMURIUM, Strain/Indicator: TA100, Metabolic Activation: NONE, Method: FLUCTUATION TEST): active; positive
mutagenic call [3]: inactive; negative
mutagenic call (Test System: AMES SALMONELLA TYPHIMURIUM, Strain/Indicator: TA100, Metabolic Activation: RAT LIVER S-9, Method: PREINCUBATION): inactive; negative
mutagenic call (Test System: AMES SALMONELLA TYPHIMURIUM, Strain/Indicator: TA100, Metabolic Activation: RAT, LIVER, S-9 (10% OR 30%), AROCLOR 1254, Method: PREINCUBATION): inactive; negative
mutagenic call (Test System: AMES SALMONELLA TYPHIMURIUM, Strain/Indicator: TA100, Metabolic Activation: RAT, LIVER, S-9, AROCLOR 1254, Method: FLUCTUATION TEST): inactive; negative
mutagenic call (Test System: AMES SALMONELLA TYPHIMURIUM, Strain/Indicator: TA100, Metabolic Activation: RAT, LIVER, S-9, AROCLOR 1254, Method: PREINCUBATION): inactive; negative
mutagenic call [4]: inactive; negative
mutagenic call (Test System: AMES SALMONELLA TYPHIMURIUM, Strain/Indicator: TA1535, Metabolic Activation: HAMSTER, LIVER, S-9 (10% OR 30%), AROCLOR 1254, Method: PREINCUBATION): inactive; negative
mutagenic call (Test System: AMES SALMONELLA TYPHIMURIUM, Strain/Indicator: TA1535, Metabolic Activation: HAMSTER, LIVER, S-9, AROCLOR 1254, Method: PREINCUBATION): inactive; negative
mutagenic call (Test System: AMES SALMONELLA TYPHIMURIUM, Strain/Indicator: TA1535, Metabolic Activation: NONE, Method: DESICCATOR): active; positive
mutagenic call (Test System: AMES SALMONELLA TYPHIMURIUM, Strain/Indicator: TA1535, Metabolic Activation: NONE, Method: PREINCUBATION): inactive; negative
mutagenic call (Test System: AMES SALMONELLA TYPHIMURIUM, Strain/Indicator: TA1535, Metabolic Activation: NONE, Method: STANDARD PLATE): inactive; negative
mutagenic call (Test System: AMES SALMONELLA TYPHIMURIUM, Strain/Indicator: TA1535, Metabolic Activation: RAT, LIVER, S-9 (10% OR 30%), AROCLOR 1254, Method: PREINCUBATION): inactive; negative
mutagenic call (Test System: AMES SALMONELLA TYPHIMURIUM, Strain/Indicator: TA1535, Metabolic Activation: RAT, LIVER, S-9, AROCLOR 1254, Method: PREINCUBATION): inactive; negative
mutagenic call (Test System: AMES SALMONELLA TYPHIMURIUM, Strain/Indicator: TA1535, Metabolic Activation: RAT, LIVER, S-9, AROCLOR 1254, Method: STANDARD PLATE): inactive; negative
mutagenic call (Test System: AMES SALMONELLA TYPHIMURIUM, Strain/Indicator: TA1537, Metabolic Activation: HAMSTER, LIVER, S-9 (10% OR 30%), AROCLOR 1254, Method: PREINCUBATION): inactive; negative
mutagenic call (Test System: AMES SALMONELLA TYPHIMURIUM, Strain/Indicator: TA1537, Metabolic Activation: HAMSTER, LIVER, S-9, AROCLOR 1254, Method: PREINCUBATION): inactive; negative
mutagenic call (Test System: AMES SALMONELLA TYPHIMURIUM, Strain/Indicator: TA1537, Metabolic Activation: NONE, Method: PREINCUBATION): inactive; negative
mutagenic call (Test System: AMES SALMONELLA TYPHIMURIUM, Strain/Indicator: TA1537, Metabolic Activation: NONE, Method: STANDARD PLATE): inactive; negative
mutagenic call (Test System: AMES SALMONELLA TYPHIMURIUM, Strain/Indicator: TA1537, Metabolic Activation: RAT, LIVER, S-9 (10% OR 30%), AROCLOR 1254, Method: PREINCUBATION): inactive; negative
mutagenic call (Test System: AMES SALMONELLA TYPHIMURIUM, Strain/Indicator: TA1537, Metabolic Activation: RAT, LIVER, S-9, AROCLOR 1254, Method: PREINCUBATION): inactive; negative
mutagenic call (Test System: AMES SALMONELLA TYPHIMURIUM, Strain/Indicator: TA1537, Metabolic Activation: RAT, LIVER, S-9, AROCLOR 1254, Method: STANDARD PLATE): inactive; negative
mutagenic call (Test System: MOUSE LYMPHOMA, Strain/Indicator: L5178Y (TK+/TK-), Metabolic Activation: NONE, Method: SUSPENSION/PLATE): active; positive
mutagenic call (Test System: MOUSE LYMPHOMA, Strain/Indicator: L5178Y (TK+/TK-), Metabolic Activation: RAT, LIVER, S-9, AROCLOR 1254, Method: SUSPENSION/PLATE): active; positive
mutagenic call (Test System: UDS RAT HEPATOCYTES, Strain/Indicator: THY INCORP, Metabolic Activation: NONE, Method: AUTORADIOGRAPHY): inactive; negative

CC(=O)Nc1ccc(C(=O)/C=C/c2ccccc2)cc1
mutagenic call [1]: inactive; negative
mutagenic call [2]: inactive; negative
mutagenic call [3]: inactive; negative
mutagenic call [4]: inactive; negative
